{"source": "BindingDB's records for doi:10.1002/1520-636X(2001)13:3", "about": "(University of Maryland, 2001)", "key": {"[1]": {"molecular_target": "Kappa-type opioid receptor (Rattus norvegicus, UniProt P34975)", "sequence (P34975 whole entry)": "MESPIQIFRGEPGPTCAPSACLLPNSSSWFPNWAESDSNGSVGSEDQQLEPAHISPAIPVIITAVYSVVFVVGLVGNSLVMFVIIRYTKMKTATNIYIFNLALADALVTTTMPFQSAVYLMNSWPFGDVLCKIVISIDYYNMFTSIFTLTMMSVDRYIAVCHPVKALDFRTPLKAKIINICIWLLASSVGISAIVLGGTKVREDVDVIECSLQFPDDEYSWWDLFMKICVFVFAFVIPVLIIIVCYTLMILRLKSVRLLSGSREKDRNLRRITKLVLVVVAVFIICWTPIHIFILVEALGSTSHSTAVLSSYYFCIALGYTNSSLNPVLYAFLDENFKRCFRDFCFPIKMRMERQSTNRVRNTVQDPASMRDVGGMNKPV"}, "[2]": {"molecular_target": "Mu-type opioid receptor (Rattus norvegicus, UniProt P33535)", "sequence (P33535 whole entry)": "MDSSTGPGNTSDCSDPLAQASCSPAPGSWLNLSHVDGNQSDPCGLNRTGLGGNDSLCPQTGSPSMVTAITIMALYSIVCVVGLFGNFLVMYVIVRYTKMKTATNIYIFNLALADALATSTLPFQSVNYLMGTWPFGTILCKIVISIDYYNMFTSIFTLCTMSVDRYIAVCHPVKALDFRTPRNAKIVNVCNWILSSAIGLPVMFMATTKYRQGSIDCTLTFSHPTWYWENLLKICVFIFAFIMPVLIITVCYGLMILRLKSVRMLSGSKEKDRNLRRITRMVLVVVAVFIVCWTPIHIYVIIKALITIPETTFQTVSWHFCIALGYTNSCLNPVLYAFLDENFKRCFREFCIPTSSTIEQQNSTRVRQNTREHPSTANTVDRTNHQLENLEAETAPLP"}, "[3]": {"molecular_target": "Delta-type opioid receptor (Mus musculus, UniProt P32300)", "sequence (P32300 whole entry)": "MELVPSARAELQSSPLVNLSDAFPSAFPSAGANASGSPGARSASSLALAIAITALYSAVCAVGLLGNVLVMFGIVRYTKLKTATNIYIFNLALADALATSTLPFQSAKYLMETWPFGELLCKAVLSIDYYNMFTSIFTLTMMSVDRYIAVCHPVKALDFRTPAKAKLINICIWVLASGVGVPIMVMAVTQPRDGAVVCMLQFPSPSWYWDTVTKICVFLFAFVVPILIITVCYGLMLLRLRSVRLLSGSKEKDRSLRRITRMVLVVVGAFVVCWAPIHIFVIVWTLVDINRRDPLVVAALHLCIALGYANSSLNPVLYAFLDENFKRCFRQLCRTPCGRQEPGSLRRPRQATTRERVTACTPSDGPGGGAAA"}}}
{"compound": "CC(C)C[C@H](NC(=O)[C@H](Cc1ccccc1)NC(=O)CNC(=O)CNC(=O)[C@@H](N)Cc1ccc(O)cc1)C(=O)N[C@@H](CCCN=C(N)N)C(=O)N[C@@H](CCCN=C(N)N)C(=O)N[C@H](C)C(=O)N[C@@H](CCCN=C(N)N)C(=O)N1CCC[C@H]1C(=O)N[C@@H](CCCCN)C(N)=O", "note": "[[D-Ala8]Dyn A-(1-11)NH2]", "values": [{"measurement": "Ki", "setting": "[1]", "value": 9.53, "unit": "nM"}]}
{"compound": "CC(C)C[C@H](NC(=O)[C@@H](Cc1ccccc1)NC(=O)CNC(=O)CNC(=O)[C@@H](N)Cc1ccc(O)cc1)C(=O)N[C@@H](CCCN=C(N)N)C(=O)N[C@@H](CCCN=C(N)N)C(=O)N[C@H](C)C(=O)N[C@@H](CCCN=C(N)N)C(=O)N1CCC[C@H]1C(=O)N[C@@H](CCCCN)C(N)=O", "note": "[[D-Phe4, D-Ala8]Dyn A-(1-11)NH2]", "values": [{"measurement": "Ki", "setting": "[2]", "value": 88.2, "unit": "nM"}, {"measurement": "Ki", "setting": "[3]", "value": "> 10000", "unit": "nM"}]}
